Source: patent US20250367164A1, “THERAPEUTIC COMPOSITIONS FOR SKIN DISORDERS AND WOUND REPAIR” (UNIVERSITY OF MIAMI, priority 2022, published 2025)

Tests used:
VEGF = VEGF ELISA on snap frozen mouse wounds; assay type: in vivo, mice; settings: same mouse wounds, FIG. 14
Protocol: Amount of VEGF in snap frozen mouse wounds was analyzed using VEGF ELISA as per manufacturer's instructions. Up to 8 wounds were utilized per condition in duplicates and amount of VEGF quantified using internal standards provided by the kit.
ELISA was used to measure levels of VEGF from the same wounds in order to validate that the upregulation at the mRNA level coincides with increased VEGF protein level.

MRSA USA300 = test: In vitro MRSA internalization in human keratinocytes; assay type: cell-based, MRSA USA300 in primary human keratinocytes
Protocol: For all internalization assays, MRSA USA300 strain was used. In vitro pathogen internalization: Primary human keratinocytes were seeded at 5×10^4 in triplicates and allowed to adhere overnight. The following day, they were inoculated with MRSA USA300 conjugated to a pH sensitive dye (pHrodo iFL STP ester, Life Technologies) at 1×10^6 CFU/ml for 1 hr in presence or absence of 1 mM MβCD, prior to washing with PBS. They were then either subject to live cell imaging or washed with lysostaphin for 1 hr (in order to kill any extracellular bacteria), lysed in hypotonic solution and seeded onto blood agar plates in serial dilutions in order to determine relative CFU counts. Ex vivo human skin: Human skin specimens from reduction surgery were obtained and wounded. Briefly, using a biopsy punch 4-mm acute wounds were made in the skin specimens (n=4 per treatment), and either pre-treated in presence or absence of 2 mM MβCD, followed by inoculation with 10 ul of MRSA 10^8 CFU/ml for 24 hrs. Skin was then washed with PBS, incubated with lysostaphin for Ihr in order to kill any extracellular bacteria, lysed with hypotonic solution and subsequent lysate seeded onto blood agar plates in serial dilutions. […]

[1] = tested on: 5-mm round excisional dorsal wounds of db/db mice; test: Splinted excisional wound healing in db/db mice treated with hydrogel scaffolds; assay type: in vivo; settings: FIG. 10
Protocol: All animal care and use procedures were approved by the University of Miami Institutional Animal Care and Use Committee (IACUC #19-097). Under anesthesia, 12×7-weeks of age female db/db mice had their dorsal skin hair clipped, depilated and their fasting blood glucose level measured for 3 consecutive days, to validate hyperglycemia (>300 mg/dL was deemed as hyperglycemic). Subsequently, mice's dorsal skin was cleaned with antiseptic solution and four 5-mm round excisional wounds were made, two on each side of the dorsal midline (n=8 wounds per treatment). Dorsal wounds were treated with cylindrical hydrogel scaffolds of 8 mm×2 mm for either 7 or 16 days. Same hydrogel scaffold fabrication procedure was employed (as previously described) and with the same treatment and control formulations as the ex vivo human skin wound models. Scaffolds were fixed on top of the wounds with 14-mm square splints containing a 10 mm circular central opening. Cyanoacrylate glue was used to secure the splints just long enough for 4 non-continuous sutures to adhere the […] to the wound and prevent wound contraction. […] Diabetic mice wounds' closure rate was assessed by histologically analyzing re-epithelialization and epidermal thickness through H&E staining with an Olympus VS120 microscope (Olympus, Tokyo, JPN) and Image J software (NIH, MD, USA). […]

With hydroxypropyl-β-cyclodextrin [HβCD] the “levels of VEGF” value (VEGF) was “increased levels of VEGF”.

With methyl-β-cyclodextrin [MβCD] the “CFU counts of internalized bacteria” value (MRSA USA300; Cav1 overexpressing and Cav1 knockout human keratinocytes, cell lysate on blood agar plates) was “lowered the CFU counts” and the “intracellular MRSA” value (MRSA USA300; treatment administered after MRSA infection, keratinocytes) was “expelled a majority of intracellular MRSA”.

In the case of platelet derived growth factor [PDGF], the “wound closure at the conclusion of the experiment” value [1] is reported as “not fully closed”.
